Test results reported in PubChem BioAssay AID2060491 (Molecular Pharmacology Branch, DTP, NCI, 2025).

Tested on: 857933-349-R-J2-PDC complex spheroids, viability
Assay: Anticancer human tumor 857933-349-R-J2-PDC patient-derived colon adenocarcinoma cell line growth inhibition [GQUAD]
Details: for IC50: curve of first compound; for viability, T/C: stronger effect = lower value
Procedure, shortened: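 Tumor cells were grown as complex spheroids with HUVEC endothelial cells and mesenchymal stem cells as stroma. G-quadruplex stabilizers were combined with targeted agents over half-log dilutions from near the clinical Cmax, or from 10 microM.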

[1] = second compound 0.0316 µM, first compound 0.0316 µM
[2] = second compound 0.0316 µM, first compound 0.1 µM
[3] = second compound 0.0316 µM, first compound 0.316 µM
[4] = second compound 0.0316 µM, first compound 1 µM
[5] = second compound 0.0316 µM, first compound 3.16 µM
[6] = second compound 0.0316 µM, first compound 10 µM
[7] = second compound 0.1 µM, first compound 0.0316 µM
[8] = second compound 0.1 µM, first compound 0.1 µM
[9] = second compound 0.1 µM, first compound 0.316 µM
[10] = second compound 0.1 µM, first compound 1 µM
[11] = second compound 0.1 µM, first compound 3.16 µM
[12] = second compound 0.1 µM, first compound 10 µM
[13] = second compound 0.316 µM, first compound 0.0316 µM
[14] = second compound 0.316 µM, first compound 0.1 µM
[15] = second compound 0.316 µM, first compound 0.316 µM
[16] = second compound 0.316 µM, first compound 1 µM
[17] = second compound 0.316 µM, first compound 3.16 µM
[18] = second compound 0.316 µM, first compound 10 µM
[19] = second compound 1 µM, first compound 0.0316 µM
[20] = second compound 1 µM, first compound 0.1 µM
[21] = second compound 1 µM, first compound 0.316 µM
[22] = second compound 1 µM, first compound 1 µM
[23] = second compound 1 µM, first compound 3.16 µM
[24] = second compound 1 µM, first compound 10 µM
[25] = second compound 3.16 µM, first compound 0.0316 µM
[26] = second compound 3.16 µM, first compound 0.1 µM
[27] = second compound 3.16 µM, first compound 0.316 µM
[28] = second compound 3.16 µM, first compound 1 µM
[29] = second compound 3.16 µM, first compound 3.16 µM
[30] = second compound 3.16 µM, first compound 10 µM
[31] = second compound 10 µM, first compound 0.0316 µM
[32] = second compound 10 µM, first compound 0.1 µM
[33] = second compound 10 µM, first compound 0.316 µM
[34] = second compound 10 µM, first compound 1 µM
[35] = second compound 10 µM, first compound 3.16 µM
[36] = second compound 10 µM, first compound 10 µM
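Also: spheroids exposed to compounds for one week before readout.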
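For viability, T/C in this document: percent viability relative to vehicle DMSO wells taken as 100%.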

C=CC(=O)N1CCN(c2nc(=O)n(-c3c(C)ccnc3C(C)C)c3nc(-c4c(O)cccc4F)c(F)cc23)C(C)C1 (stereo unspecified) + CN(C)c1ccc(Nc2c3ccc(NC(=O)CCN4CCCC4)cc3nc3cc(NC(=O)CCN4CCCC4)ccc23)cc1
IC50 (second compound 0.0316 µM): > 10000 nM
IC50 (second compound 0.1 µM): > 10000 nM
IC50 (second compound 0.316 µM): > 10000 nM
IC50 (second compound 1 µM): > 10000 nM
IC50 (second compound 3.16 µM): > 10000 nM
IC50 (second compound 10 µM): > 10000 nM
viability, T/C [1]: 114%
viability, T/C [2]: 91.7%
viability, T/C [3]: 108%
viability, T/C [4]: 97.3%
viability, T/C [5]: 114%
viability, T/C [6]: 112%
viability, T/C [7]: 104%
viability, T/C [8]: 102%
viability, T/C [9]: 102%
viability, T/C [10]: 102%
viability, T/C [11]: 108%
viability, T/C [12]: 113%
viability, T/C [13]: 105%
viability, T/C [14]: 99.5%
viability, T/C [15]: 99%
viability, T/C [16]: 99.8%
viability, T/C [17]: 112%
viability, T/C [18]: 107%
viability, T/C [19]: 97.2%
viability, T/C [20]: 90.8%
viability, T/C [21]: 102%
viability, T/C [22]: 99.6%
viability, T/C [23]: 113%
viability, T/C [24]: 98.3%
viability, T/C [25]: 90.2%
viability, T/C [26]: 79.5%
viability, T/C [27]: 91.4%
viability, T/C [28]: 89.9%
viability, T/C [29]: 100%
viability, T/C [30]: 88%
viability, T/C [31]: 73%
viability, T/C [32]: 77.9%
viability, T/C [33]: 70.8%
viability, T/C [34]: 77.5%
viability, T/C [35]: 82.3%
viability, T/C [36]: 79.3%

CCc1c2c(nc3ccc(O)cc13)-c1cc3c(c(=O)n1C2)COC(=O)[C@]3(O)CC + CN(C)c1ccc(Nc2c3ccc(NC(=O)CCN4CCCC4)cc3nc3cc(NC(=O)CCN4CCCC4)ccc23)cc1
IC50 (second compound 0.0316 µM): 16.1 nM
IC50 (second compound 0.1 µM): 15.6 nM
IC50 (second compound 0.316 µM): 15.3 nM
IC50 (second compound 1 µM): 13.2 nM
IC50 (second compound 3.16 µM): 14.5 nM
IC50 (second compound 10 µM): 24 nM
viability, T/C (second compound 0.0316 µM, first compound 0.000999 µM): 95.6%
viability, T/C (second compound 0.0316 µM, first compound 0.00316 µM): 78.4%
viability, T/C (second compound 0.0316 µM, first compound 0.00999 µM): 55.4%
viability, T/C [1]: 40.4%
viability, T/C (second compound 0.0316 µM, first compound 0.0999 µM): 21.6%
viability, T/C [3]: 5.95%
viability, T/C (second compound 0.1 µM, first compound 0.000999 µM): 94.2%
viability, T/C (second compound 0.1 µM, first compound 0.00316 µM): 81.8%
viability, T/C (second compound 0.1 µM, first compound 0.00999 µM): 59.9%
viability, T/C [7]: 33.8%
viability, T/C (second compound 0.1 µM, first compound 0.0999 µM): 18.5%
viability, T/C [9]: 7.59%
viability, T/C (second compound 0.316 µM, first compound 0.000999 µM): 98%
viability, T/C (second compound 0.316 µM, first compound 0.00316 µM): 82.3%
viability, T/C (second compound 0.316 µM, first compound 0.00999 µM): 57.6%
viability, T/C [13]: 34%
viability, T/C (second compound 0.316 µM, first compound 0.0999 µM): 21.5%
viability, T/C [15]: 5.15%
viability, T/C (second compound 1 µM, first compound 0.000999 µM): 93.5%
viability, T/C (second compound 1 µM, first compound 0.00316 µM): 77%
viability, T/C (second compound 1 µM, first compound 0.00999 µM): 55.9%
viability, T/C [19]: 31.4%
viability, T/C (second compound 1 µM, first compound 0.0999 µM): 20.2%
viability, T/C [21]: 5.78%
viability, T/C (second compound 3.16 µM, first compound 0.000999 µM): 89.9%
viability, T/C (second compound 3.16 µM, first compound 0.00316 µM): 77.6%
viability, T/C (second compound 3.16 µM, first compound 0.00999 µM): 58.3%
viability, T/C [25]: 31.9%
viability, T/C (second compound 3.16 µM, first compound 0.0999 µM): 21.7%
viability, T/C [27]: 7.69%
viability, T/C (second compound 10 µM, first compound 0.000999 µM): 70.4%
viability, T/C (second compound 10 µM, first compound 0.00316 µM): 67.4%
viability, T/C (second compound 10 µM, first compound 0.00999 µM): 59%
viability, T/C [31]: 48.2%
viability, T/C (second compound 10 µM, first compound 0.0999 µM): 27.8%
viability, T/C [33]: 14.2%

CC(=O)O[C@H]1C(=O)[C@@]2(C)[C@H]([C@H](OC(=O)c3ccccc3)[C@]3(O)C[C@H](OC(=O)[C@H](O)[C@@H](NC(=O)c4ccccc4)c4ccccc4)C(C)=C1C3(C)C)[C@]1(OC(C)=O)CO[C@@H]1C[C@@H]2O + CN(C)c1ccc(Nc2c3ccc(NC(=O)CCN4CCCC4)cc3nc3cc(NC(=O)CCN4CCCC4)ccc23)cc1
IC50 (second compound 0.0316 µM): 66.3 nM
IC50 (second compound 0.1 µM): 62.7 nM
IC50 (second compound 0.316 µM): 62.1 nM
IC50 (second compound 1 µM): 60.2 nM
IC50 (second compound 3.16 µM): 55.1 nM
IC50 (second compound 10 µM): < 31.6 nM
viability, T/C [1]: 75%
viability, T/C [2]: 36%
viability, T/C [3]: 22.3%
viability, T/C [4]: 23.4%
viability, T/C [5]: 23.6%
viability, T/C [6]: 27.1%
viability, T/C [7]: 75.5%
viability, T/C [8]: 33.7%
viability, T/C [9]: 22.2%
viability, T/C [10]: 23%
viability, T/C [11]: 22.6%
viability, T/C [12]: 26.4%
viability, T/C [13]: 70.9%
viability, T/C [14]: 35.2%
viability, T/C [15]: 19.6%
viability, T/C [16]: 20.5%
viability, T/C [17]: 24%
viability, T/C [18]: 27.2%
viability, T/C [19]: 71.6%
viability, T/C [20]: 33%
viability, T/C [21]: 22.1%
viability, T/C [22]: 21.3%
viability, T/C [23]: 26.2%
viability, T/C [24]: 26.8%
viability, T/C [25]: 67.4%
viability, T/C [26]: 31.6%
viability, T/C [27]: 26%
viability, T/C [28]: 24.5%
viability, T/C [29]: 27.2%
viability, T/C [30]: 30.9%
viability, T/C [31]: 54.9%
viability, T/C [32]: 43.9%
viability, T/C [33]: 38.6%
viability, T/C [34]: 33.4%
viability, T/C [35]: 34.3%
viability, T/C [36]: 41.4%
